Results as given in the NIST ThermoML archive (doi:10.1021/je800325d).

Assays:
[1] = refractive index (Na D-line) (dimensionless); xn = mol fraction of the nth substance listed; conditions: 101 kPa, Liquid, Standard Abbe refractometry
[2] = xn = mol fraction of the nth substance listed; conditions: 101 kPa, Liquid

COC(=O)c1ccccc1 [methyl benzoate] + Cc1cccc(C)c1
Conditions | mass density, [2] [kg/m3] | refractive index, [1] | viscosity, [2] [mPa·s]
303.15 K, x1 = 0.1071 | 878.7 | 1.4933 | 0.609
303.15 K, x1 = 0.203 | 900.2 | 1.4943 | 0.672
303.15 K, x1 = 0.3034 | 922.3 | 1.4954 | 0.739
303.15 K, x1 = 0.3924 | 941.4 | 1.4962 | 0.824
303.15 K, x1 = 0.4909 | 962.7 | 1.4973 | 0.923
303.15 K, x1 = 0.5978 | 985.7 | 1.5004 | 1.023
303.15 K, x1 = 0.6867 | 1004.6 | 1.5033 | 1.134
303.15 K, x1 = 0.8125 | 1029.6 | 1.5069 | 1.316
303.15 K, x1 = 0.8734 | 1043.8 | 1.5093 | 1.403
303.15 K, x1 = 0.9518 | 1059.6 | 1.5107 | 1.565
313.15 K, x1 = 0.1071 | 870.6 | 1.4911 | 0.544
313.15 K, x1 = 0.203 | 891.9 | 1.4919 | 0.598
313.15 K, x1 = 0.3034 | 914.2 | 1.4927 | 0.654
313.15 K, x1 = 0.3924 | 933.2 | 1.4933 | 0.729
313.15 K, x1 = 0.4909 | 954.4 | 1.4941 | 0.804
313.15 K, x1 = 0.5978 | 977.1 | 1.496 | 0.892
313.15 K, x1 = 0.6867 | 995.8 | 1.4987 | 0.978
313.15 K, x1 = 0.8125 | 1021.9 | 1.502 | 1.122
313.15 K, x1 = 0.8734 | 1034.8 | 1.504 | 1.191
313.15 K, x1 = 0.9518 | 1050.7 | 1.5064 | 1.317

CC(=O)OCCC(C)C [3-methylbutyl ethanoate] + Cc1cccc(C)c1
Conditions | mass density, [2] [kg/m3] | refractive index, [1] | viscosity, [2] [mPa·s]
303.15 K, x1 = 0.0877 | 855.8 | 1.483 | 0.561
303.15 K, x1 = 0.1726 | 856.5 | 1.4745 | 0.572
303.15 K, x1 = 0.3736 | 858.2 | 1.4549 | 0.605
303.15 K, x1 = 0.4421 | 858.4 | 1.4487 | 0.619
303.15 K, x1 = 0.5478 | 858.8 | 1.4398 | 0.643
303.15 K, x1 = 0.657 | 859.3 | 1.4297 | 0.666
303.15 K, x1 = 0.7478 | 860.1 | 1.4207 | 0.687
303.15 K, x1 = 0.8501 | 861 | 1.4101 | 0.708
303.15 K, x1 = 0.9465 | 861.9 | 1.4014 | 0.727
313.15 K, x1 = 0.0877 | 847.3 | 1.4811 | 0.502
313.15 K, x1 = 0.1726 | 848.2 | 1.4724 | 0.51
313.15 K, x1 = 0.3736 | 849.5 | 1.452 | 0.538
313.15 K, x1 = 0.4421 | 849.6 | 1.4456 | 0.549
313.15 K, x1 = 0.5478 | 849.8 | 1.435 | 0.568
313.15 K, x1 = 0.657 | 850.3 | 1.4248 | 0.587
313.15 K, x1 = 0.7478 | 851.1 | 1.4157 | 0.603
313.15 K, x1 = 0.8501 | 851.9 | 1.4056 | 0.623
313.15 K, x1 = 0.9465 | 852.8 | 1.3985 | 0.638
